Measured values: article PMC4900628, “Critical Evaluation of P2X7 Receptor Antagonists in Selected Seizure Models” (PLoS ONE, 2016)
Counter-ions that a name gives are not always drawn.

What was measured:
rat P2X7R = target: T1, rat P2X7R (Rattus norvegicus, UniProt Q64663); assay: fluorometric Ca2+ assay (ATP-induced [Ca2+]i response) in HEKrP2X7 cells; type: cell-based; details: HEKrP2X7 cells, fluo-4, 1 mM ATP; read-out: Potency IC50 ± SEM, Rat P2X7R
T1 construct: expressed in transfected cells; host or cells: HEK293 Flp-In T-REx (HEKrP2X7), tetracycline-induced
T1 sequence (Q64663 1-595): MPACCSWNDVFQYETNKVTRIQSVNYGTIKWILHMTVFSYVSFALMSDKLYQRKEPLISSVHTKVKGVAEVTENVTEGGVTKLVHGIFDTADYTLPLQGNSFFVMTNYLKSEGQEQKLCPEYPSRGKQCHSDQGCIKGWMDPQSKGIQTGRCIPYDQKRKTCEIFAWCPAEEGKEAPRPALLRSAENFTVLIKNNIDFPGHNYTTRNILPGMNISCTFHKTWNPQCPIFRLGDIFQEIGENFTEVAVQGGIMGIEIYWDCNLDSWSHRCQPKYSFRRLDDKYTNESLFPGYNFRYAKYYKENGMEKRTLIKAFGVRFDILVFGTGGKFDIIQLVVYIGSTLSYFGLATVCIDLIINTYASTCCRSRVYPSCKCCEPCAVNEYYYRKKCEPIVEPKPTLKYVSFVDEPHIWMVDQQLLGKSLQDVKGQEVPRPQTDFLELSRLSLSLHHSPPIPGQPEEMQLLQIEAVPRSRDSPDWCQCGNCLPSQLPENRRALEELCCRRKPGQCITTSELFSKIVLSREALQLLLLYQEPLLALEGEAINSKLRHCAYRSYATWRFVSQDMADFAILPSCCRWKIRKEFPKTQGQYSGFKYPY
Procedure: (§1) Cells were grown in a humidified incubator at 37°C in an atmosphere supplemented with 5% CO2. […] HEK293mP2X7 were cultured in DMEM under similar conditions as described above, but containing 100 μg/ml zeocin (Invitrogen). […] Expression of the transgene was induced by supplementing the medium with 1 μg/ml tetracycline (Sigma-Aldrich, Taufkirchen, Germany) 24 h prior to the experiments. All fluorometric Ca^2+ assays in cell suspensions were performed in 384-microwell plates (Corning, No. 3655, Lowell, MA, USA) with a fluorescence-imaging microplate reader (POLARstar Omega, BMG Labtech, Offenburg, Germany) (for details, see [61, 68]). […] Microwell plates were repetitively scanned every 16 s in the fast scanning mode of the device. […] Data were normalized to the baseline values before ATP application (F/F0). […] ATP-solution was freshly prepared in Mg^2+-free HBS solution and adjusted to pH 7.4. Aliquots of stock solutions were stored at -20°C and freshly diluted with the appropriate HBS solution. […] Results are expressed as mean ± SEM. […] In the PTZ-T, the number of animals in the group with clonic seizures and the latency time were analysed using Fisher's exact probability test and the Mann-Whitney rank sum test, respectively. For multiple comparisons of the latency time a one-way ANOVA with the Holm-Sidak post hoc test was used. The influence of AFC on the plasma and brain concentrations of the antiepileptic drugs was statistical compared using the same procedure. In the PTZ-kindling model, the mean seizure stage within a group was calculated in relation to the number of PTZ-injections. Statistical comparison between vehicle- and compound-treated groups in this model was performed with two-way repeated measures ANOVA, followed by the Holm-Sidak post hoc test. […] In fully kindled rats, the calculated mean seizure stage within a group after vehicle- and compound-treatment were compared using a paired t-test. P < 0.05 was the accepted minimum level of significance.

human P2X7R = target: T2, human P2X7R (Homo sapiens, UniProt Q99572); assay: fluorometric Ca2+ assay (ATP-induced [Ca2+]i response) in HEKhP2X7 cells; type: cell-based; details: fluo-4, 1 mM ATP, read-out: Potency IC50 ± SEM, Human P2X7R
T2 construct: expressed in transfected cells
T2 sequence (Q99572 1-595): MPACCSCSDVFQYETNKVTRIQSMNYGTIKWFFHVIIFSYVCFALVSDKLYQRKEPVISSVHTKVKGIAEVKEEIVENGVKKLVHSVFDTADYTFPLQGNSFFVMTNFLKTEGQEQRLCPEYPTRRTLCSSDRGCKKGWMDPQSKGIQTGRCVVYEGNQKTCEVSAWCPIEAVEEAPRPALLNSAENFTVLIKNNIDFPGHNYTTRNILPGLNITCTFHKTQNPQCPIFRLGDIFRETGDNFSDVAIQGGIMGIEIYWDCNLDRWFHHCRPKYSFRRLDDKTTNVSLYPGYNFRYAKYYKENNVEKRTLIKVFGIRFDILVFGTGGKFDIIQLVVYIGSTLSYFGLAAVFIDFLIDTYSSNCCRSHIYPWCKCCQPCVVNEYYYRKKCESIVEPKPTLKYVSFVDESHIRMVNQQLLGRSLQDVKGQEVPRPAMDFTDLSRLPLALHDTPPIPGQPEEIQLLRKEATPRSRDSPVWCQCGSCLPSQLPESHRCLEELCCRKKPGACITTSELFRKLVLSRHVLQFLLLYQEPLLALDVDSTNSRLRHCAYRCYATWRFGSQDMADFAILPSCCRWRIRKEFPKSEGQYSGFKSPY
Procedure: as §1

mouse P2X7R = target: T3, mouse P2X7R (Mus musculus, UniProt Q9Z1M0); assay: fluorometric Ca2+ assay (ATP-induced [Ca2+]i response) in HEKmP2X7 cells; type: cell-based; details: fluo-4, 1 mM ATP, read-out: Potency IC50 ± SEM, Mouse P2X7R
T3 construct: expressed in transfected cells
T3 sequence (Q9Z1M0 1-595): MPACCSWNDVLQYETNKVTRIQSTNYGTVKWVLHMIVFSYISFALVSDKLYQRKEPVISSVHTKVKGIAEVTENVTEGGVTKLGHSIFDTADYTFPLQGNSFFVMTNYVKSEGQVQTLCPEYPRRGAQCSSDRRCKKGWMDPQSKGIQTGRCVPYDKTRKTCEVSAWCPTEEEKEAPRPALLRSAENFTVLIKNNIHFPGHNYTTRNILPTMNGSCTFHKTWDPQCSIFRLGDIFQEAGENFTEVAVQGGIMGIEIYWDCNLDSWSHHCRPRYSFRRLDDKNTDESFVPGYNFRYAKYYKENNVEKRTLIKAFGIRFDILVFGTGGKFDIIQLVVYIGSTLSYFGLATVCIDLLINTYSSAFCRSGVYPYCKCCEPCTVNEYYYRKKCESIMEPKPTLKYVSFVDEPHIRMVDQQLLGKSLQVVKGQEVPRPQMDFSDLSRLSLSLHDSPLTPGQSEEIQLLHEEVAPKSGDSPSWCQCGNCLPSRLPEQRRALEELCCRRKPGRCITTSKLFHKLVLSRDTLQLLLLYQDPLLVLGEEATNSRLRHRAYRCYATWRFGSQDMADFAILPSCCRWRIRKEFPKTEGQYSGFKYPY
Procedure: as §1

[1] = tested on: PTZ-induced seizures in fully PTZ-kindled rats; assay: PTZ-induced seizures in fully kindled rats; type: in vivo; details: fully kindled rats; 100 mg/kg i.p.; pre-drug (vehicle) value 4.0
Excerpt: Results were expressed as mean seizure stages of a tested group in which the seizure behaviour after vehicle treatment (vehicle seizure stage) and after compound treatment (compound seizure stage), examined 3-4 days later, was matched. For comparison, the effectiveness of two antiepileptic drugs (carbamazepine and valproate) was also investigated. […] Chemicals, Toronto, Canada) was slowly added. The pH was adjusted with 1N NaOH (similar amount of NaOH as HCl), all with continuous stirring. […] The drug solutions or suspensions were prepared immediately before use; all doses refer to the salts. Animals in the control group received equivalent volumes of the vehicle (in mice always 10 ml/kg, in rats 1 ml/kg [JNJ], 3 ml/kg [AFC] or 4 ml/kg [BBG, TIIAS], depending on the solubility of the different compounds). Doses and peak time effects were selected on the basis of effective doses from corresponding in vivo studies in the literature: BBG (e.g.), tanshinone IIA (e.g.) and from manufacturer's experimental data: AFC, JNJ (see, [80]). Data were analysed using SigmaPlot (vers. 12.0, Systat Software, Erkrath, Germany) and SPSS (IBM SPSS Statistics 20, […], Germany), respectively. Results are expressed as mean ± SEM. […] In the MES-T, the current intensity inducing tonic hindlimb extensions in 50% of the mice (CC50 values with confidence limits for 95% probability) and the statistical significance was calculated using Probit analysis (SPSS). […] In the PTZ-T, the number of animals in the group with clonic seizures and the latency time were analysed using Fisher's exact probability test and the Mann-Whitney rank sum test, respectively. For multiple comparisons of the latency time a one-way ANOVA with the Holm-Sidak post hoc test was used. The influence of AFC on the plasma and brain concentrations of the antiepileptic drugs was statistical compared using the same procedure. In the PTZ-kindling model, the mean seizure stage within a group was calculated in relation to the number of PTZ-injections. Statistical comparison between vehicle- and compound-treated groups in this model was performed with two-way repeated measures ANOVA, followed by the Holm-Sidak post hoc test. The mean number of PTZ-injections needed to produce the first generalized seizure (≥ stage 3 convulsions) in the vehicle- versus compound-treated groups was statistically compared using a Mann-Whitney rank sum test. In fully kindled rats, the calculated mean seizure stage within a group after vehicle- and compound-treatment were compared using a paired t-test. P < 0.05 was the accepted minimum level of significance.

IC50 (rat P2X7R) [µM]	IC50 (human P2X7R) [µM]	IC50 (mouse P2X7R) [µM]	SMILES	mean seizure stage, post-drug [1]
0.22 ± 0.01	0.07 ± 0.009	0.28 ± 0.02	Clc1cccc(-c2nnnn2Cc2cccnc2)c1Cl [A-438079, 3-[[5-(2,3-dichlorophenyl)-1H-tetrazol-1yl]methyl]pyridine hydrochloride hydrate]	–
0.02 ± 0.002	–	0.12 ± 0.005	O=C(CC12CC3CC(CC(C3)C1)C2)Nc1cccc2nc(NCCNCCO)ccc12 [AZ-10606120, N-[2-[[2-[(2-hydroxyethyl)amino]ethyl]amino]-5-quinolinyl]-2-tricyclo[3.3.1.13,7]dec-1-ylacetamide dihydrochloride]	–
–	–	–	CCCC(CCC)C(=O)O [Ca-valproate, Ca-valproate dihydrate]	1.1
